Measured values: patent publication US20180271809A1, “USE OF NICLOSAMIDE IN THE TREATMENT OF P53-DEFICIENT CELLS” (AGENCY FOR SCIENCE, TECHNOLOGY AND RESEARCH, priority 2015, published 2018)

Key:
HCT116 p53^−/− cells [1] = experiment: Co-culture cell viability / competition assay of H2B-GFP HCT116 p53+/+ and H2B-RFP HCT116 p53−/− cells; type: cell-based
Description: Stably expressing H2B-GFP-HCTp53^+/+ cell (wild type p53 cells) and H2B-RFP-HCTp53^−/− cells (cells lacking p53) were grown in co-culture to screen drug compounds sensitizing either wild type p53 cells or p53-negative cells. Briefly, 200 cells of each
HCT116p53^+/+ and HCT116p53^−/− were plated in a pre-coated 384-well drug plates at final cell density of 400 cells per well at a final volume of 80 μl per well. After plating cells into respective wells, plates were incubated for 6 days. After 6 days of drug incubation, plates were imaged in an Incell Analyzer 200 machine by performing a multi-channel read, that is applying FITC staining to count GFP positive cells and Texas Red staining to count RFP positive cells. After imaging, the raw data was processed through the Incell-Investigator software to count the number of GFP positive and RFP positive cells.
Wildtype HCT116 cells expressing H2B-GFP were co-cultured with HCT115 p53^−/− cells expressing H2B-RFP. […]
2000 cells each of H2B-GFP-HCT116p53^+/+ and H2B-RFP-HCT116p53^−/− were grown as co-culture in 96-well plates in a total volume of 100 ∥l. […] After 6 days of recovery, the cells were imaged in an Incell Analyzer 2000 machine and the percentage of viable cells was determined and plotted against the drug concentrations used in the experiment.

HCT116 p53^−/− cells [2] = experiment: Colony forming assay (crystal violet) in isogenic HCT116 cell lines; type: cell-based; settings: 0.5-3 μM, 48 hours of drug treatment, recovery
[3] = test system: Human skin fibroblast cells (TOBA cells); experiment: Cell viability (light microscopy) and Annexin V apoptosis assay in p53-depleted human skin fibroblast cells; type: cell-based
Description: Human skin fibroblast cells (TOBA cells) were infected either with a control shRNA lentivirus or a p53-targeting shRNA virus (as described in the preceding section). After generation of a stable p53-knockdown (using puro selection), cells were analysed for cell viability in response to different doses of niclosamide. Briefly, wild type Toba cells, and p53 depleted cells were plated at 20,000 cell density in 6 well plates. Next day, cells were either DMSO treated or treated with varying doses of niclosamide. After 48 hours of drug incubation, the drug containing media was replaced with new cell culture medium to start recovery. After 8 days of recovery, the cells were imaged in light microscope at 10× objective lens.
As described above, DMSO and niclosamide-treated cells were analysed for the presence of apoptotic cell death by Annexin V staining. All cells in a well, including both rounded floating (that is, dead or dying cells) and adherent cells (that is, live cells) were collected carefully by trypsinisation and centrifuged at 400 g for 5 minutes. The pellet was resuspended in 200 μl of incubation buffer and after re-suspension, centrifuged at same speed as above to collect the washed sample pellets. […]

[4] = test system: p53-deficient HCT116 spheroid; experiment: 3D spheroid growth of co-cultured HCT116 p53+/+ and p53−/− cells; type: cell-based; settings: 48 hours drug incubation, 6 more days culture
Description: H2B-GFP- HCT116p53^+/+ and H2B-RFP-p53^−/− cells were grown as co-culture in a ultralow attachment 96-well cell culture plates to promote the spheroid formation. Briefly, to generate 3D multicellular spheroids, H2B-GFP expressing wild type (WT) p53 cells and H2B-RFP expressing p53-negative cells were each seeded at 250 cells per 100 ∥l culture media into 96-well round-bottomed plate and spun down (1000 g, 5 min). The seeded cells were cultured for two days in 5% CO2 humidified atmosphere at 37° C. On third day, cells were either DMSO treated or treated with different doses of niclosamide. After 48 hours of drug incubation, spheroids were diluted to non-toxic concentrations via media exchange. Treated spheroids were then further cultured for 6 more days. Spheroids were imaged in Incell analyser 2000 with FITC and Texas-Red channels.

[5] = test system: p53 null and p53 mutant cancer cells; experiment: Apoptotic cell death assays in p53 null and p53 mutant cancer cell lines; type: cell-based; settings: data not shown
Description: To this end, various cancer cell lines/types were seeded according to their growth rate to be confluent at the same time. These cell lines were each treated with differing niclosamide concentrations for 48 hours. The cells were then allowed to recover in their respective media for 6 days, after which apoptotic cell death assays were performed. The resulting percentage of apoptotic cells in each sample were plotted on a 3D graph (data not shown).

[6] = test system: Mouse embryonic stem cells harbouring a p53K0 mutation; experiment: Teratoma growth in nude mice from mouse embryonic stem cells pre-treated with niclosamide; type: in vivo; settings: mES cells treated with 2 μM for 48 hours before injection into nude mice; tumours observed after 24 days / 3 weeks
Description: Mouse embryonic stem cells harbouring a p53K0 mutation were either treated with DMSO or treated with niclosamide at a concentration of 2 μM for 48 hours. The resulting trypsinised cells were then resuspended in Phosphate buffer Saline. The cells were counted and resuspended to result in a final cell concentration of 1×10^6 cells/100 μl. Immediately after counting, the cells were transferred to animal facility for nude mice injection. 100 μl of DMSO treated cells were injected into the right inguinal region, while 100 μl niclosamide treated cells were injected into the left inguinal region of each mouse. After 24 days of the injection, tumour growth was observed. The resulting teratomas were surgically removed analysed to observe the ability of niclosamide to inhibit tumour growth. […] Therefore, an in vivo tumour model in nude mice was utilised. As a control, mouse embryonic stem (mES) cells were injected into nude mice and the mice monitored for the presence of tumour growth (teratomas). mES cells treated with niclosamide or DMSO treated control cells were injected into nude mice and tumour growth monitored after 3 weeks.

[7] = test system: ovarian tumour samples derived from patient biopsy samples; experiment: Patient-derived ovarian tumour xenograft mouse model; type: in vivo; settings: 150 mg/kg once, intravenously; 30 days post treatment
Description: Experiments were also performed using a patient-derived xenograft mouse model. In these experiments, ovarian tumour samples derived from patient biopsy samples were implanted into either the left or right flank of the mouse. These tumours were allowed to establish in the mouse and the tumour volume was measured according to standard practice every 2 days post implantation. After reaching a minimum threshold size of about 200 mm^3, the mice were treated once, intravenously, with niclosamide at a concentration of 150 mg/kg. The change in tumour volume was measured for further 30 days post treatment.

[8] = test system: mouse embryonic fibroblast (MEF) cells harbouring p53 mutations (+/R172 or R172/R172); experiment: Niclosamide sensitivity of mouse embryonic fibroblast (MEF) cells with wild type or mutant p53; type: cell-based; settings: p53 +/R172 or R172/R172 versus wild type
Caspase-3 = Caspase-3 immunoblot of niclosamide-treated HCT116 cells; type: cell-based; settings: HCT116 wild type p53 versus p53 deficient
Description: Like human fibroblast cells, these cells were also tested for apoptotic cell death, the data of which is shown in the graphs shown in FIG. 4B). […] Both HCT116 cells with wild type p53 and those which were p53 deficient were treated with niclosamide, and protein samples were immunoblotted with Caspase-3 antibody.

O=C(Nc1ccc([N+](=O)[O-])cc1Cl)c1cc(Cl)ccc1O [niclosamide, 2′,5-dichloro-4′-nitrosalicylanilide]
cell viability, HCT116 p53−/− versus HCT116 p53 wildtype (cell viability assay) (HCT116 p53^−/− cells [1]; after 48 hours of drug treatment, compared with DMSO controls): decrease in the viability of HCT116 p53^−/− cells to a greater extent than the HCT116 p53 wildtype cells | selective targeting in chemical biology screen (relative percentages of GFP and RFP cells) (HCT116 p53^−/− cells [1]; co-culture, 48 hours treatment, 7 days recovery in drug free media): selectively targeting HCT116 p53^−/− cells | cell viability, HCT116 p53−/− versus HCT116 p53 wildtype (colony formation assay) (HCT116 p53^−/− cells [2]): decrease in the viability of HCT116 p53^−/− cells to a greater extent than the HCT116 p53 wildtype cells | apoptosis (Annexin V) in p53-deficient versus wildtype human fibroblasts ([3]; 1-4 μM, 48 hours, then recovery, flow cytometry): greater extent of apoptosis in p53-deficient human fibroblasts | sensitivity / killing of p53-deficient human fibroblast cells (FIG. 3 taken together) ([3]; shp53 versus shcontrol cells): preferential killing of p53 deficient cells | 3D spheroid growth, p53-deficient versus wildtype HCT116 [4]: greater reduction of 3D p53-deficient HCT116 spheroid growth compared to wildtype spheroid | susceptibility (apoptotic cells) of p53 null and p53 mutant cancer cells ([5]; 48 hours treatment, 6 days recovery): strongly susceptible to treatment with niclosamide in a dose dependent manner | cell viability of the remaining (surviving) cells ([5]; certain cell lines): differentially reduced cell viability of the remaining cells in certain cell lines | size of the teratomas versus DMSO control [6]: significant reduction in the size of the teratomas | tumour growth (tumour volume) versus PBS control [7]: reduction in tumour growth | niclosamide sensitivity of p53 mutant MEF cells (bright field, crystal violet) [8]: p53 mutant MEF cells are sensitive to niclosamide | induction of cleaved caspase in p53 deficient HCT116 cells (western blot) (Caspase-3): clear induction of the cleaved caspase in p53 minus
